Source: US12084436B2, “Heterocyclic compound” (Takeda Pharmaceutical Company Limited, priority 2019, dated 2024)

Legend:
tauopathy mouse model = conditions: cited from earlier work
HDAC6 enzyme = biological target: T1, HDAC6 enzyme (Homo sapiens, UniProt Q9UBN7); assay: HDAC6 enzyme inhibitory assay (HDAC-Glo I/II Assay kit, luminescence); type: biochemical; conditions: 10 μM test compound; wells without enzyme = 100% inhibition; read-out: HDAC6 inhibitory rate (%) (10 μM)
T1 construct: prepared by transducing full length HDAC6 gene into Sf-9 insect cells; GST; purchased SignalChem; host or cells: Sf-9 insect cells
T1 sequence (Q9UBN7 1-1215): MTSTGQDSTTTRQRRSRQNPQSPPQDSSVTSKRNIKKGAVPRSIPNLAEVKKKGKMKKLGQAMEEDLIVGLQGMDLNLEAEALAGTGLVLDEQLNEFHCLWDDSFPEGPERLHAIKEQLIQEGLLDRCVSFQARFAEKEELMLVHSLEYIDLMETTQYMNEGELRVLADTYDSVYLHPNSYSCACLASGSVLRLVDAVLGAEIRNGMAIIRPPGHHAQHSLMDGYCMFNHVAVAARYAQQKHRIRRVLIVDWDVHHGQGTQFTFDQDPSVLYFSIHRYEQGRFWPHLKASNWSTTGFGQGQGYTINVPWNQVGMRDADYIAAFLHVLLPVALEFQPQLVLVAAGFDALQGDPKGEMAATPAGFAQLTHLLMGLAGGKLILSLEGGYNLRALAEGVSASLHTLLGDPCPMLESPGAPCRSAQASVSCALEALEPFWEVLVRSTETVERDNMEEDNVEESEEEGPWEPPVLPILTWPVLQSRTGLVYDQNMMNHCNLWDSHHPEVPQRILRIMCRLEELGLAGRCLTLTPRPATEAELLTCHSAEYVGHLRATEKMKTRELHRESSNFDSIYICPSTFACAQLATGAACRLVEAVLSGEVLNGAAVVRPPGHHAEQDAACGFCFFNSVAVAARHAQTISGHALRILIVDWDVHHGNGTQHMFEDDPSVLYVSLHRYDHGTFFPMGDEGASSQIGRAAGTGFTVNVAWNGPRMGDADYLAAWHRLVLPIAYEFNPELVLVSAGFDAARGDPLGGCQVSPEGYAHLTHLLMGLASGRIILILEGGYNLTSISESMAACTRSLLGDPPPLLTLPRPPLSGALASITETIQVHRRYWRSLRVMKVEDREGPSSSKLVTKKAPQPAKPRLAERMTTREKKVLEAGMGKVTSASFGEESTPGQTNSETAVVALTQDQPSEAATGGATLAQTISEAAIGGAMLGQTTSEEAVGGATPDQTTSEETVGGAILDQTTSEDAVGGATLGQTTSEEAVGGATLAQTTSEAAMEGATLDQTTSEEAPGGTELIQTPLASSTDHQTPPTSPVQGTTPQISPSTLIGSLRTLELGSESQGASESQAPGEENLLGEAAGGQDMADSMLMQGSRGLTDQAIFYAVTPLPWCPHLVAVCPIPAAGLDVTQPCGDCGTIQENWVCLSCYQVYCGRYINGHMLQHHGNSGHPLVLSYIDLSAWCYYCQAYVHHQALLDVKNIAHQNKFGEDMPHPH
Procedure, shortened: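 Full-length human HDAC6, GST-purified from Sf-9 cells, was preincubated with compound for 60 min at room temperature in Tris-HCl pH 7.5 buffer with glutathione and Tween-20. Substrate-developer was then added, and luminescence was read after 20 min at room temperature. Inhibition was expressed relative to no-enzyme wells, taken as 100% inhibition.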

| SMILES | acetylation of tubulin (tauopathy mouse model) | therapeutic effectiveness (tauopathy mouse model) | inhibition at 10 µM (HDAC6 enzyme) [%] |
| --- | --- | --- | --- |
| CN1CCc2c(c3ccccc3n2Cc2ccc(C(=O)NO)cc2)C1 [Tubastatin A] | increases acetylation of tubulin | shows therapeutic effectiveness |  |
| Fc1cc(-c2nnc(C(F)F)o2)cc(-c2ncccc2OCC2CCOC2)c1 (stereo not drawn) [Example 12a, 2-{3-[5-(difluoromethyl)-1,3,4-oxadiazol-2-yl]-5-fluorophenyl}-3-[(oxolan-3-yl)methoxy]pyridine] |  |  | 99 |
| O=C1c2cc(-c3nnc(C(F)F)o3)ccc2CN(c2ccc(F)cc2)N1CC(F)F [Example 48b, 2-(2,2-difluoroethyl)-7-[5-(difluoromethyl)-1,3,4-oxadiazol-2-yl]-3-(4-fluorophenyl)-3,4-dihydrophthalazin-1(2H)-one] |  |  | 101 |
| O=C1COC[C@@H](Cc2ccccc2)N1c1cc(-c2nnc(C(F)F)o2)ccn1 [Example 19a, (5R)-5-benzyl-4-{4-[5-(difluoromethyl)-1,3,4-oxadiazol-2-yl]pyridin-2-yl}morpholin-3-one] |  |  | 99 |
| CN1C(=O)c2cc(-c3nnc(C(F)F)o3)ccc2O[C@]1(C)c1ccccc1 [Example 6b, (2R)-6-[5-(difluoromethyl)-1,3,4-oxadiazol-2-yl]-2,3-dimethyl-2-phenyl-2,3-dihydro-4H-1,3-benzoxazin-4-one] |  |  | 99 |
| CN1C(=O)c2cc(-c3nnc(C(F)F)o3)ccc2OC1(C)c1ccc(Cl)cc1 (stereo not drawn) [Example 26b, 2-(4-chlorophenyl)-6-[5-(difluoromethyl)-1,3,4-oxadiazol-2-yl]-2,3-dimethyl-2,3-dihydro-4H-1,3-benzoxazin-4-one] |  |  | 100 |
| O=C1NN(c2ccc(F)c(F)c2)Cc2ncc(-c3nnc(C(F)F)o3)cc21 [Example 34b, 3-[5-(difluoromethyl)-1,3,4-oxadiazol-2-yl]-7-(3,4-difluorophenyl)-7,8-dihydropyrido[2,3-d]pyridazin-5(6H)-one] |  |  | 100 |
| Fc1cc(-c2nnc(C(F)F)o2)cc(-c2ncccc2OC2CCOCC2)c1 [Example 8a, 2-{3-[5-(difluoromethyl)-1,3,4-oxadiazol-2-yl]-5-fluorophenyl}-3-[(oxan-4-yl)oxy]pyridine] |  |  | 98 |
| CN1C(=O)c2cc(-c3nnc(C(F)F)o3)ccc2C[C@@]1(C)c1ccc(F)c(F)c1 [Example 49b, (3S)-7-[5-(difluoromethyl)-1,3,4-oxadiazol-2-yl]-3-(3,4-difluorophenyl)-2,3-dimethyl-3,4-dihydroisoquinolin-1(2H)-one] |  |  | 42 |
| Fc1cc(-c2nnc(C(F)F)o2)cc(-c2nccn2Cc2cncnc2)c1 [Example 25a, 5-[(2-{3-[5-(difluoromethyl)-1,3,4-oxadiazol-2-yl]-5-fluorophenyl}-1H-imidazol-1-yl)methyl]pyrimidine] |  |  | 98 |
| CN(Cc1ccc(C(F)F)cc1)N1Cc2ccc(-c3nnc(C(F)F)o3)cc2C1=O [Example 57c, 6-[5-(difluoromethyl)-1,3,4-oxadiazol-2-yl]-2-[{[4-(difluoromethyl)phenyl]methyl} (methyl)amino]-2,3-dihydro-1H-isoindol-1-one] |  |  | 99 |
